Assay results published in patent publication US12213975B2, “PDE9 inhibitors for treating sickle cell disease” (Cardurion Pharmaceuticals, Inc., priority 2018, dated 2025).

Columns and labels:
[1] = system: Townes mouse model; experiment: Plasma sE-Selectin in Townes mouse model of SCD; assay type: in vivo; conditions: Townes mice treated with Compound 1
Description: Recently several drugs targeting white cell binding to endothelial cells, have been advancing in clinical studies in patients. Compound 1 is able to increase expression of fetal hemoglobin in patient derived cells and murine models of SCD and reduce vessel occlusion in SCD murine models. In this Example, the ability of Compound 1 to reduce the adhesive properties of neutrophils from SCD patients and reduce sE-Selectin (sE-Sel) and markers of PMN activation in murine SCD models was studied.
Endothelial E-selectin (E-Sel) slows leukocyte rolling, which is followed by stationary adhesion and transmigration of activated leukocytes. Plasma levels of sE-Sel, produced by the enzymatic cleavage of the extracellular domains of E-Sel, are increased in SCD patients and this may be mediated by its interaction with leukocytes. In the Townes mouse model, plasma sE-Sel is increased 144% ([…]) over levels seen in control mice ([…]).

[2] = system: SCD patient neutrophils adhering to activated endothelial cells HMEC-1; experiment: In vitro adhesion assay mimicking blood flow: SS patient neutrophils on activated HMEC-1 lined microchannels; assay type: cell-based, human
Description: This appears to be accompanied by a Compound 1-mediated reduction in disease specific cell activation including 67% lower levels of myeloid derived myeloperoxidase (MPO) and 26% lower levels of neutrophil derived arginase in the lung (FIG. 1). […] This was quantified by real time monitoring of the green florescent patches in the mircochannel, as neutrophils are labeled by a specific Alexa Fluor® 488-conjugated antibody before the perfusion step. […] Under these conditions, adhesion was reduced an average of 54% (p=0.03) (FIG. 2). Mechanistically, not willing to be bound by any theory, Compound 1 may target the stationary adhesion step of neutrophils as it lowered expression levels of key neutrophil integrins including CD11a [reduced 23% (p=0.002)], CD11b [reduced 39% (ns)) and CD18 [reduced 47% (p=0.03)) (FIG. 3).

[3] = system: SCD models; experiment: Circulating levels of PMNs in SCD models; assay type: in vivo
[4] = system: patient; experiment: Adverse event profile when taken with food; assay type: in vivo; conditions: once a day with food
Experimental: In some embodiments, Compound 1 or a pharmaceutically acceptable salt or polymorph thereof is administered to a patient, wherein Compound 1 or a pharmaceutically acceptable salt or polymorph thereof is administered once a day with food. […] The incidence and severity of the side effects, such as nausea, emesis and headache, can be reduced when Compound 1 or a pharmaceutically acceptable salt or polymorph thereof, is taken with food.

SMILES: C[C@@H]1CN(Cc2ncccn2)C[C@H]1c1cn2c(C3CCOCC3)ncc2c(=O)[nH]1 [Compound 1, 6-[(3S,4S)-4-methyl-1-(pyrimidin-2-ylmethyl)pyrrolidin-3-yl]-3-tetrahydropyran-4-yl-7H-imidazo[1,5-a]pyrazin-8-one]
- plasma sE-Sel ([1]; untreated Townes 139, control mice 57): 92 ng/mL
- plasma sE-Sel levels elevated over control mice ([1]; untreated Townes increased 144%): 61%
- incubation time at which inhibitory effect was initiated [2]: 15 min
- reduction of neutrophil adhesion (average) ([2]; 30 min incubation with 30 μM, p=0.03, FIG. 2): 54%
- effect on neutrophil adhesion to activated HMEC-1 ([2]; added to blood samples prior to the perfusion step): reduced adhesions significantly and in a dose dependent manner
- circulating levels of PMNs [3]: reduced circulating levels of PMNs
- effect of food on adverse event profile (nausea, emesis, headache) [4]: food can dramatically reduce the adverse event profile
